Source: ChEMBL document CHEMBL3272257, “Clonidine and related analogues. Quantitative correlations” (J Med Chem, 1976)

Experiments:
[1] = Retardation factor, deltaRm of the compound at pH 13 by TLC analysis; assay type: physicochemical
[2] = Octan-1-ol-aqueous buffer partition coefficient, log P of the compound at 10 to 20 mg at pH 7.4 by UV-spectroscopic analysis; assay type: physicochemical
[3] = Dissociation constant, pKa of the compound in water-ethyl alcohol; assay type: physicochemical
[4] = organism: Rattus norvegicus; test: Hypotensive activity in rat assessed as change in mean blood pressure relative to control; assay type: functional; parameters: concentration or dose not given beside the values
[5] = test system: Rattus norvegicus; test: Peripheral adrenergic activity in iv dosed pithed rat assessed as change in mean blood pressure; assay type: functional
[6] = test system: Rattus norvegicus; test: Toxicity in iv dosed pithed rat; assay type: organism-based; details: in vivo

| SMILES | deltaRm [1] | logD [2] | pKa [3] | Activity [4] | pD2 [5] | LD50 [6] |
| --- | --- | --- | --- | --- | --- | --- |
| Cc1cccc(C)c1N=C1NCCN1 | 0.42 | -1.65 | 10.5 | <10% | 7.74 | – |
| c1ccc(NC2=NCCN2)cc1 | 0 | -1.8 | 10.4 | <10% | 5.84 | – |
| Clc1cc(Cl)c(N=C2NCCN2)c(Cl)c1 | 1 | – | 7.6 | 15% | 7.13 | – |
| Cc1cc(C)c(N=C2NCCN2)c(C)c1 | – | – | – | – | 7.8 | – |
| Brc1cccc(Br)c1N=C1NCCN1 | 0.61 | 1.15 | 7.95 | 15% | 7.28 | – |
| CCc1cccc(CC)c1NC1=NCCN1 | 0.95 | -0.84 | 10.6 | >10% | 7.61 | – |
| Fc1cccc(F)c1N=C1NCCN1 | 0.24 | 0.02 | 8.4 | <10% | 7.23 | – |
| Clc1cc(Cl)c(N=C2NCCN2)cc1Cl | 1.2 | 1.63 | 7.7 | – | – | – |
| CC(C)c1cccc(C(C)C)c1N=C1NCCN1 | 1.32 | -0.21 | 10.7 | <10% | 5.79 | – |
| COc1cc(C)ccc1N=C1NCCN1 | -0.03 | -1.56 | 10.6 | <10% | 6.58 | – |
| Cc1ccc(Cl)cc1N=C1NCCN1 | 0.72 | -0.3 | 9.5 | <10% | 7.64 | – |
| COc1ccc(OC)c(N=C2NCCN2)c1 | -0.42 | -1.78 | 10.2 | <10% | 6.98 | – |
| Brc1ccc(N=C2NCCN2)cc1 | 0.58 | -0.5 | 9.65 | <10% | 6.09 | – |
| COc1cc(OC)c(N=C2NCCN2)cc1Cl | -0.07 | -1.37 | 10.2 | <10% | 6.68 | – |
| CCc1ccccc1N=C1NCCN1 | – | – | – | – | 7.55 | – |
| COc1cc(C)c(N=C2NCCN2)c(C)c1 | – | – | – | – | – | 54 µM |
| Cc1cc(O)cc(C)c1N=C1NCCN1 | – | – | – | – | 7.51 | – |
| FC(F)(F)c1ccccc1N=C1NCCN1 | – | 0 | 8.8 | <10% | 6.13 | – |
| Oc1cc(Cl)c(N=C2NCCN2)c(Cl)c1 | – | -0.4 | 7.95 | <10% | 7.37 | – |
| Cc1cc(Cl)ccc1N=C1NCCN1 | 0.75 | -0.58 | 9.75 | <10% | 7.11 | – |
| Cc1cccc(Cl)c1N=C1NCCN1 | 0.45 | -0.4 | 9.2 | 15% | 7.74 | – |
| Cc1ccc(N=C2NCCN2)c(C)c1 | 0.43 | -1.46 | 10.7 | >10% | 7.74 | – |
| Clc1ccc(Cl)c(N=C2NCCN2)c1 | 0.71 | 0.95 | 8 | <10% | 7.65 | – |
| Clc1ccc(N=C2NCCN2)c(Cl)c1 | 0.76 | 0.69 | 8.65 | 15% | 6.71 | – |
| Clc1cccc(Cl)c1NC1=NCCN1 [CLONIDINE] | 0.38 | 0.83 | 8.05 | 15% | 7.66 | – |
| Cc1ccc(NC2=NCCN2)c(Cl)c1 [TOLONIDINE] | – | -0.28 | 9.55 | 15% | 7.08 | – |
